# Laboratory results reported in patent publication US20040152739A1, “Acyclic pyrazole compounds for the inhibition of mitogen activated protein kinase-activated protein kinase-2” (priority 2002, published 2004).
# Where a name gives a salt, the structure may show the parent alone.
# Molecular target: MK-2 (Homo sapiens, UniProt P49137)
# Experiment: Determination of MK-2 IC50 (anion exchange resin capture assay, HSP-peptide phosphorylation)
# Type: biochemical
# Details: MK-2 Avg. IC50
# Description: The phosphorylation of HSP-peptide ([sequence]) by MAPKAPK2 was measured using an anion exchange resin capture assay method. […] The reaction was terminated and [γ^33P]ATP was removed from solution by the addition of 150 μl of AG 1×8 ion exchange resin in 900 mM sodium formate pH 3.0. A 50 μl aliquot of head volume was removed from the quenched reaction mixture and added to a 96-well plate, 150 μl of Microscint-40 (Packard) was added and the amount of phosphorylated-peptide was determined. Allow the Microscint to sit in the plates for 60 minutes prior to counting.
# Compounds are evaluated as potential inhibitors of the MK2 kinase by measuring their effects on MK2 phosphorylation of the peptide substrate. Compounds may be screened initially at two concentrations prior to determination of IC50 values. Screening results are expressed as percent inhibition at the concentrations of compound tested. For IC50 value determinations, compounds are tested at six concentrations in ten-fold serial dilutions with each concentration tested in triplicate. Results are expressed as IC50 values in micromolar. The assay is performed at a final concentration of 2% DMSO.
# Compounds are evaluated as potential inhibitors of the MK-2 kinase by measuring their effects on MK-2 phosphorylation of the peptide substrate. Compounds may be screened initially at two concentrations prior to determination of IC50 values. Screening results are expressed as percent inhibition at the concentrations of compound tested. For IC50 value determinations, compounds are tested at six concentrations in ten-fold serial dilutions with each concentration tested in triplicate. Results are expressed as IC50 values in micromolar. The assay is performed at a final concentration of 2% DMSO.
# MK-2, sequence (P49137 whole entry, species assumed): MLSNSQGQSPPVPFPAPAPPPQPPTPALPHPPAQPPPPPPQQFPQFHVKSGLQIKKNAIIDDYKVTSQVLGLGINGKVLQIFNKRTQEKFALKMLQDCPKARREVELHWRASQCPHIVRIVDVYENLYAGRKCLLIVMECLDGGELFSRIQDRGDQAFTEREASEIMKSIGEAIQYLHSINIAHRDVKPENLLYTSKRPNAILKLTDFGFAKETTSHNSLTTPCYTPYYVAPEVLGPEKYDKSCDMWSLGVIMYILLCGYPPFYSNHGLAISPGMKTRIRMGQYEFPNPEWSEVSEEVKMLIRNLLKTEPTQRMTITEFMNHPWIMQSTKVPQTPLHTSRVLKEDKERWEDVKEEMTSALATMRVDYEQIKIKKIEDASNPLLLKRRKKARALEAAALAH
row,Compound,IC50 [µM]
1,"CCOC(=O)c1cc(-c2ccnc(-c3ccc(O[Si](C)(C)C(C)(C)C)cc3)c2)nn1CCN [Example 136, ethyl 1-(2-aminoethyl)-3-[2-(4-{[tert-butyl(dimethyl)silyl]oxy}phenyl)pyridin-4-yl]-1H-pyrazole-5-carboxylate dihydrochloride]",28.3

# Same assay, conditions: read-out: MK-2 Avg. IC50
row,Compound,IC50 [µM]
1,"CCOC(=O)c1cc(-c2ccnc(-c3cccc(OC)c3)c2)nn1CCN [Example 110, ethyl 1-(2-aminoethyl)-3-[2-(3-methoxyphenyl)pyridin-4-yl]-1H-pyrazole-5-carboxylate dihydrochloride]",5.23
2,"O=C1NCCn2nc(-c3ccnc(-c4ccccn4)c3)cc21 [Example 111, 2-(2,2′-bipyridin-4-yl)-6,7-dihydropyrazolo[1,5-a]pyrazin-4(5H)-one]",5.34
3,"CN(C)Cc1ccc(-c2cc(-c3cc4n(n3)CCNC4=O)ccn2)cc1 [Example 112, 2-(2-{4-[(dimethylamino)methyl]phenyl}pyridin-4-yl)-6,7-dihydropyrazolo[1,5-a]pyrazin-4(5H)-one trifluoroacetate]",5.35
4,"O=C1NCCCn2nc(-c3ccnc(-n4ccnc4)c3)cc21 [Example 113, 2-[2-(1H-imidazol-1-yl)pyridin-4-yl]-5,6,7,8-tetrahydro-4H-pyrazolo[1,5-a][1,4]diazepin-4-one hydrochloride]",5.66
5,"O=C1NCCn2nc(-c3ccnc(-c4cccc(CNCCO)c4)c3)cc21 [Example 114, 2-[2-(3-{[(2-hydroxyethyl)amino]methyl}phenyl)pyridin-4-yl]-6,7-dihydropyrazolo[1,5-a]pyrazin-4(5H)-one]",5.78
6,"CC(C)NCc1cccc(-c2cc(-c3cc4n(n3)CCNC4=O)ccn2)c1 [Example 115, 2-(2-{3-[(isopropylamino)methyl]phenyl}pyridin-4-yl)-6,7-dihydropyrazolo[1,5-a]pyrazin-4(5H)-one]",6.27
7,"O=C1NCCn2nc(-c3ccnc(-c4cccc(OCCN5CCOCC5)c4)c3)cc21 [Example 116, 2-{2-[3-(2-morpholin-4-ylethoxy)phenyl]pyridin-4-yl}-6,7-dihydropyrazolo[1,5-a]pyrazin-4(5H)-one]",6.73
8,"O=C1NCCn2nc(-c3ccnc(-n4cnc(-c5ccccc5)c4)c3)cc21 [Example 117, 2-[2-(4-phenyl-1H-imidazol-1-yl)pyridin-4-yl]-6,7-dihydropyrazolo[1,5-a]pyrazin-4(5H)-one]",7.04
9,"NCCn1nc(-c2ccnc(-c3ccc(CO)cc3)c2)cc1C(=O)NO [Example 118, 1-(2-aminoethy)-N-hydroxy-3-{2-[4-(hydroxymethyl)phenyl]pyridin-4-yl}-1H-pyrazole-5-carboxamide trifluoroacetate]",7.91
10,"NCCCn1nc(-c2ccc(O)cc2)cc1C(=O)O [Example 119, 1-(3-aminopropyl)-3-(4-hydroxyphenyl)-1H-pyrazole-5-carboxylic acid dihydrochloride]",8.11
11,"O=C1NCCn2nc(-c3ccnc(-c4nc5ccccc5[nH]4)c3)cc21 [Example 120, 2-[2-(1H-benzimidazol-2-yl)pyndin-4-yl]-6,7-dihydropyrazolo[1,5-a]pyrazin-4(5H)-one]",8.92
12,"O=C1NCCCn2nc(-c3ccnc(-n4ccnn4)c3)cc21 [Example 121, 2-[2-(1H-1,2,3-triazol-1-yl)pyridin-4-yl]-5,6,7,8-tetrahydro-4H-pyrazolo[1,5-a][1,4]diazepin-4-one hydrochloride]",9.05
13,"O=C1NCCCn2nc(-c3ccncc3)cc21 [Example 122, 2-pyridin-4-yl-5,6,7,8-tetrahydro-4H-pyrazolo[1,5-a][1,4]diazepin-4-one]",10.1
14,"O=C1NCCCn2nc(-c3ccnc(-n4cccc4)c3)cc21 [Example 123, 2-[2-(1H-pyrrol-1-yl)pyridin-4-yl]-5,6,7,8-tetrahydro-4H-pyrazolo[1,5-a][1,4]diazepin-4-one trifluoroacetate]",10.6
15,"NCCCn1nc(-c2ccnc(-c3cnc4ccccc4c3)c2)cc1C(N)=O [Example 124, 1-(3-aminopropyl)-3-(2-quinolin-3-ylpyridin-4-yl)-1H-pyrazole-5-carboxamide dihydrochloride]",10.7
16,"O=C1NCCn2nc(-c3ccnc(-c4cccc(CN5CCOCC5)c4)c3)cc21 [Example 125, 2-{2-[3-(morpholin-4-ylmethyl)phenyl]pyridin-4-yl]-6,7-dihydropyrazolo[1,5-a]pyrazin-4(5H)-one]",11.4
17,"N#Cc1cc(-c2cc3n(n2)CCNC3=O)ccn1 [Example 126, 4-(4-oxo-4,5,6,7-tetrahydropyrazolo[1,5-a]pyrazin-2-yl)pyridine-2-carbonitrile]",13.8
18,"COc1ccc(-c2cc(C(=O)O)n(CCCNC(=O)OC(C)(C)C)n2)cc1 [Example 151, 1-{3-[(tert-butoxycarbonyl)amino]propyl}-3-(4-methoxyphenyl)-1H-pyrazole-5-carboxylic acid]",155

# Second part, the compound after the results:
row,IC50 [µM],Compound
1,14.3,"CCCn1nc(-c2ccnc(-n3ccnc3)c2)cc1C(=O)O [Example 127, 3-[2-(1H-imidazol-1-yl)pyridin-4-yl]-1-propyl-1H-pyrazole-5-carboxylic acid]"
2,15.4,"CN(C)Cc1cccc(-c2cc(-c3cc4n(n3)CCNC4=O)ccn2)c1 [Example 128, 2-(2-{3-[(dimethylamino)methyl]phenyl}pyridin-4-yl)-6,7-dihydropyrazolo[1,5-a]pyrazin-4(5H)-one trifluoroacetate]"
3,15.5,"O=C1NCCn2nc(-c3ccnc(-c4cccc(OCc5ccccc5)c4)c3)cc21 [Example 129, 2-{2-[3-(benzyloxy)phenyl]pyridin-4-yl}-6,7-dihydropyrazolo[1,5-a]pyrazin-4(5H)-one]"
4,16.2,"O=C1NCCCn2nc(-c3ccnc(-n4cccn4)c3)cc21 [Example 130, 2-[2-(1H-pyrazol-1-yl)pyridin-4-yl]-5,6,7,8-tetrahydro-4H-pyrazolo[1,5-a][1,4]diazepin-4-one hydrochloride]"
5,24.5,"CCOC(=O)c1cc(-c2ccncc2)nn1CCN [Example 133, ethyl 1-(2-aminoethyl)-3-pyridin-4-yl-1H-pyrazole-5-carboxylate dihydrochloride]"
6,27.2,"Cc1ccc(C(C)CCNCCn2nc(-c3ccncc3)cc2C(=O)O)o1 (stereo not shown) [Example 134, 1-(2-{[3-(5-methyl-2-furyl)butyl]amino}ethyl)-3-pyridin-4-yl-1H-pyrazole-5-carboxylic acid trifluoroacetate]"
7,28.2,"O=C1NCCCn2nc(-c3ccnc(-n4cncn4)c3)cc21 [Example 135, 2-[2-(1H-1,2,4-triazol-1-yl)pyridin-4-yl]-5,6,7,8-tetrahydro-4H-pyrazolo[1,5-a][1,4]diazepin-4-one hydrochloride]"
8,31.6,"CCOC(=O)c1cc(-c2ccnc(-c3cccc([N+](=O)[O-])c3)c2)nn1CCCN [Example 137, ethyl 1-(3-aminopropyl)-3-[2-(3-nitrophenyl)pyridin-4-yl]-1H-pyrazole-5-carboxylate dihydrochloride]"
9,37.2,"CN(C)c1cc(-c2cc3n(n2)CCNC3=O)ccn1 [Example 138, 2-[2-(dimethylamino)pyridin-4-yl]-6,7-dihydropyrazolo[1,5-a]pyrazin-4(5H)-one trifluoroacetate]"
10,38.6,"CCOC(=O)c1cc(-c2ccnc(-c3cnc4ccccc4c3)c2)nn1CCCN [Example 139, ethyl 1-(3-aminopropyl)-3-(2-quinolin-3-ylpyridin-4-yl)-1H-pyrazole-5-carboxylate dihydrochloride]"
11,44.8,"O=C1NCCn2nc(-c3ccnc(Cl)c3)cc21 [Example 140, 2-(2-chloropyridin-4-yl)-6,7-dihydropyrazolo[1,5-a]pyrazin-4(5H)-one]"
12,47.5,"CCOC(=O)c1cc(-c2ccnc(-c3ccc(O)cc3)c2)nn1CCCN [Example 141, ethyl 1-(3-aminopropyl)-3-[2-(4-hydroxyphenyl)pyridin-4-yl]-1H-pyrazole-5-carboxylate hydrochloride]"
13,53.4,"Cc1cnn(-c2cc(-c3cc4n(n3)CCCNC4=O)ccn2)c1 [Example 142, 2-[2-(4-methyl-1H-pyrazol-1-yl)pyridin-4-yl]-5,6,7,8-tetrahydro-4H-pyrazolo[1,5-a][1,4]diazepin-4-one trifluoroacetate]"
14,60.8,"CCOC(=O)c1cc(-c2ccncc2)nn1CCCN [Example 143, ethyl 1-(3-aminopropyl)-3-pyridin-4-yl-1H-pyrazole-5-carboxylate hydrochloride]"
15,65.5,"O=C1NCCn2nc(-c3ccnc(-c4ccc(Cl)c(Cl)c4)c3)cc21 [Example 144, 2-[2-(3,4-dichlorophenyl)pyridin-4-yl]-6,7-dihydropyrazolo[1,5-a]pyrazin-4(5H)-one trifluoroacetate]"
16,80.4,"O=C1NCCCn2nc(-c3ccnc(Cl)c3)cc21 [Example 145, 2-(2-chloropyridin-4-yl)-5,6,7,8-tetrahydro-4H-pyrazolo[1,5-a][1,4]diazepin-4-one]"
17,88.9,"O=C1NCCn2nc(-c3ccnc(-c4ccc(F)c(F)c4)c3)cc21 [Example 146, 2-[2-(3,4-difluorophenyl)pyridin-4-yl]-6,7-dihydropyrazolo[1,5-a]pyrazin-4(5H)-one trifluoroacetate]"
18,118,"O=C1NCCCn2nc(-c3ccc(O)cc3)cc21 [Example 147, 2-(4-hydroxyphenyl)-5,6,7,8-tetrahydro-4H-pyrazolo[1,5-a][1,4]diazepin-4-one]"
19,124,"O=C1NCCCn2nc(-c3ccnc(-c4ccc(OC(F)(F)F)cc4)c3)cc21 [Example 148, 2-{2-[4-(trifluoromethoxy)phenyl]pyridin-4-yl}-5,6,7,8-tetrahydro-4H-pyrazolo[1,5-a][1,4]diazepin-4-one]"
20,131,"O=C1NCCn2nc(-c3ccnc(-c4ccc(OC(F)(F)F)cc4)c3)cc21 [Example 149, 2-{2-[4-(trifluoromethoxy)phenyl]pyridin-4-yl}-6,7-dihydropyrazolo[1,5-a]pyrazin-4(5H)-one trifluoroacetate]"
21,153,"NCCCn1nc(-c2cccc(O)c2)cc1C(=O)O [Example 150, 1-(3-aminopropyl)-3-(3-hydroxyphenyl)-1H-pyrazole-5-carboxylic acid trifluoroacetate]"
